# Laboratory results as given in ChEMBL document CHEMBL2380195 (J Med Chem, 2013).
# Active and inactive are the calls of the source. The calls are words filed in the database; no cut-off is given here.
# Target: T1, Prostaglandin G/H synthase 1 (Homo sapiens, UniProt P23219)
# Test: Inhibition of COX-1 (unknown origin) in platelet rich plasma assessed as inhibition of arachidonic acid-induced platelet aggregation at 10 uM incubated for 5 mins prior to arachidonic acid challenge measured for 5 mins by aggregometric analysis relative to vehicle-treated control
# Details: not given
# T1 sequence (P23219 whole entry): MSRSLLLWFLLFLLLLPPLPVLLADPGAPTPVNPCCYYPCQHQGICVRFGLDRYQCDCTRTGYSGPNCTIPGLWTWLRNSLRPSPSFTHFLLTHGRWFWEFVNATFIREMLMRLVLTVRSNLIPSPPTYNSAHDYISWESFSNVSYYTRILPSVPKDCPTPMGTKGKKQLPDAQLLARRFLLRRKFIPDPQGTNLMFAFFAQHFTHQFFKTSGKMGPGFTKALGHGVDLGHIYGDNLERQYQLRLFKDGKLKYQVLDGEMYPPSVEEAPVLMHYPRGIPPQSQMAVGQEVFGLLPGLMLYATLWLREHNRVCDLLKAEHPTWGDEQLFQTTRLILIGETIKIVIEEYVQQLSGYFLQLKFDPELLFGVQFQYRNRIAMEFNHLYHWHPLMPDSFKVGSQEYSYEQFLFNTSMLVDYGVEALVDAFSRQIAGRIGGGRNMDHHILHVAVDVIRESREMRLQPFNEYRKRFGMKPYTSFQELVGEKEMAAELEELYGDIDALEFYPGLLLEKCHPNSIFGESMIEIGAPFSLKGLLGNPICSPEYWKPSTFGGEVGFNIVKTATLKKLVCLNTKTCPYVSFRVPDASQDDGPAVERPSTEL
row,inhibition [%],Structure (SMILES)
1,97.8,Cc1ccc(-c2noc(C)c2-c2ccccc2)o1

# System: Homo sapiens
# Test: Antithrombotic activity in human assessed as reduction of 11-dehydro-TXB2 level in urine at 100 mg/day administered 6 days measured for 24 hrs post last dose relative to vehicle-treated control
# Assay type: functional
# Design: scale not given: the % may be the effect or the level left
# Details: not given
row,Structure (SMILES),Activity [%]
1,CC(=O)Oc1ccccc1C(=O)O [ASPIRIN],70

# Target: T1, Prostaglandin G/H synthase 1
# Test: Inhibition of COX-1 in human THP1 cells assessed as inhibition of arachidonic acid-induced TXB2 formation at 100 uM incubated for 30 mins prior to arachidonic acid challenge measured after 30 mins by radioimmunoassay relative to vehicle-treated control
# Assay type: cell-based
# Details: THP-1
row,inhibition [%],Structure (SMILES)
1,> 90,CC(=O)Oc1ccccc1C(=O)O [ASPIRIN]
2,> 90,Cc1ccc(-c2noc(C)c2-c2ccccc2)o1
3,> 90,CC(C)Cc1ccc(C(C)C(=O)O)cc1 (configuration not stated)

# System: not listed separately
# Test: Binding affinity to human alpha1-acid glycoprotein by HPLC analysis relative to control
# Assay type: ADME
# Details: pooled result: one value given for 2 cell lines, strains, targets or settings
row,Activity [%],Structure (SMILES)
1,94.7,Cc1ccc(-c2noc(C)c2-c2ccccc2)o1

# Target: T1, Prostaglandin G/H synthase 1
# Test: not given
# Details: at 0.01 to 100 µM
row,inhibition,Structure (SMILES)
1,Active,CC(=O)Oc1ccccc1C(=O)O [ASPIRIN]
2,Active,Cc1ccc(-c2noc(C)c2-c2ccccc2)o1

# Organism: Mus musculus
# Test: Antithrombotic activity in LDLR-/- C57BL/6 mouse assessed as reduction of 11-dehydro-TXB2 level in urine at 30 mg/L after 18 weeks relative to vehicle-treated control
# Assay type: functional
# Design: scale not given: the % may be the effect or the level left
# Details: not given
row,Structure (SMILES),Activity [%]
1,CC(=O)Oc1ccccc1C(=O)O [ASPIRIN],70

# Target: T1, Prostaglandin G/H synthase 1
# Test: Inhibition of COX-1 (unknown origin) in platelet rich plasma assessed as inhibition of arachidonic acid-induced platelet aggregation up to 3 uM incubated for 5 mins prior to arachidonic acid challenge measured for 5 mins by aggregometric analysis
# Details: not given
row,inhibition,Structure (SMILES)
1,inactive,Cc1ccc(-c2noc(C)c2-c2ccccc2)o1

# Target: T1, Prostaglandin G/H synthase 1
# Test: Inhibition of COX-1 (unknown origin) in platelet rich plasma assessed as inhibition of collagen-induced TXB2 formation incubated for 5 mins prior to collagen challenge measured for 5 mins by aggregometric analysis
# Details: not given
IC50 [µM],inhibition,Structure (SMILES)
7.4,Dose-dependent effect,Cc1ccc(-c2noc(C)c2-c2ccccc2)o1

# Target: T1, Prostaglandin G/H synthase 1
# Test: Inhibition of COX-1 (unknown origin) in platelet rich plasma assessed as inhibition of collagen-induced platelet aggregation incubated for 5 mins prior to collagen challenge measured for 5 mins by aggregometric analysis
# Details: not given
row,inhibition,Structure (SMILES)
1,Dose-dependent effect,Cc1ccc(-c2noc(C)c2-c2ccccc2)o1

# Target: T1, Prostaglandin G/H synthase 1
# Test: Irreversible inhibition of COX-1 in human THP1 cells assessed as inhibition of arachidonic acid-induced TXB2 formation at 100 uM incubated for 30 mins followed by compound washout measured 30 mins post arachidonic acid challenge by radioimmunoassay
# Assay type: cell-based
# Details: THP-1
row,inhibition,Structure (SMILES)
1,Active,CC(=O)Oc1ccccc1C(=O)O [ASPIRIN]
2,Active,Cc1ccc(-c2noc(C)c2-c2ccccc2)o1

# Target: Prostaglandin G/H synthase 2 (Homo sapiens) (UniProt P35354)
# Test: Irreversible inhibition of COX-2 in human MDA-MB-231 cells assessed as inhibition of arachidonic acid-induced PGE2 formation at 100 uM incubated for 30 mins followed by compound washout measured 30 mins post arachidonic acid challenge by radioimmunoassay
# Details: not given
row,inhibition,Structure (SMILES)
1,Active,Cc1ccc(-c2noc(C)c2-c2ccccc2)o1

# Target: T2, Prostaglandin G/H synthase 2 (Homo sapiens, UniProt P35354)
# T2 sequence (P35354 whole entry): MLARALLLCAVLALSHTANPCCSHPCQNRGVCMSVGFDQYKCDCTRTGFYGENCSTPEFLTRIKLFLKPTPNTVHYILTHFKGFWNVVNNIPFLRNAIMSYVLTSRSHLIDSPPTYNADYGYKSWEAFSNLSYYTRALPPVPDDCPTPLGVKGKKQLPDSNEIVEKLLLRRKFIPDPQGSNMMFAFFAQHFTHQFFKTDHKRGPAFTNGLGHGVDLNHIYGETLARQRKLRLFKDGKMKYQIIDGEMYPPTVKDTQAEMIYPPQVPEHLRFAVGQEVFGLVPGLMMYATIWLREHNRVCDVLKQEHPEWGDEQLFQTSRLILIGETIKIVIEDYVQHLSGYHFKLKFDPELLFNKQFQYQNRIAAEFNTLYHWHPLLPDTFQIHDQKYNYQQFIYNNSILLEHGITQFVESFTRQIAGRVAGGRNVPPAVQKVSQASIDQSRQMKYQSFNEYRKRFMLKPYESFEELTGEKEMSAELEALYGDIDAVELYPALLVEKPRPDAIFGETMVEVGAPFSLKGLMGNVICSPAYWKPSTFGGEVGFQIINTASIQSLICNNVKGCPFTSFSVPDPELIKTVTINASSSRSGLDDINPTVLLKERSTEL
# Test: Inhibition of COX-2 in human whole blood assessed as inhibition of LPS-induced plasma PGE2 level by radioimmunoassay
# Details: not given
row,IC50 [µM],Structure (SMILES)
1,68.2,Cc1ccc(-c2noc(C)c2-c2ccccc2)o1

# Target: COX-1/COX-2 (Homo sapiens) (UniProt P35354+P23219)
# Test: Selectivity ratio of IC50 for COX-2 in human whole blood to COX-1 in human whole blood
# Assay type: tissue-based
# Details: not given
row,Ratio IC50,Structure (SMILES)
1,213,Cc1ccc(-c2noc(C)c2-c2ccccc2)o1

# Target: T1, Prostaglandin G/H synthase 1
# Test: Inhibition of COX-1 in human whole blood assessed as inhibition of serum TXB2 level after 1 hr by radioimmunoassay
# Details: not given
row,IC50 [µM],Structure (SMILES)
1,0.32,Cc1ccc(-c2noc(C)c2-c2ccccc2)o1

# Target: T1, Prostaglandin G/H synthase 1
# Test: Reversible inhibition of COX-1 in human THP1 cells assessed as inhibition of arachidonic acid-induced TXB2 formation at 100 uM incubated for 30 mins followed by compound washout measured 30 mins post arachidonic acid challenge by radioimmunoassay
# Assay type: cell-based
# Details: THP-1
row,inhibition,Structure (SMILES)
1,Active,CC(C)Cc1ccc(C(C)C(=O)O)cc1 (configuration not stated)

# Target: T1, Prostaglandin G/H synthase 1
# Test: Inhibition of COX-1 in human washed platelet assessed as inhibition of 10 uM arachidonic acid-induced TXB2 formation at 0.01 to 100 uM incubated for 25 mins prior to arachidonic acid challenge measured after 30 mins by radioimmunoassay
# Details: not given
row,inhibition,Structure (SMILES)
1,Active,CC(=O)Oc1ccccc1C(=O)O [ASPIRIN]
2,Active,Cc1ccc(-c2noc(C)c2-c2ccccc2)o1

# Target: T1, Prostaglandin G/H synthase 1
# Test: Inhibition of COX-1 (unknown origin) in platelet rich plasma assessed as inhibition of arachidonic acid-induced TXB2 formation incubated for 5 mins prior to arachidonic acid challenge measured for 5 mins by aggregometric analysis
# Details: not given
IC50 [µM],inhibition,Structure (SMILES)
4.3,Dose-dependent effect,Cc1ccc(-c2noc(C)c2-c2ccccc2)o1

# Target: T1, Prostaglandin G/H synthase 1
# Test: Inhibition of COX-1 (unknown origin) in platelet rich plasma assessed as inhibition of collagen-induced platelet aggregation at 10 uM incubated for 5 mins prior to collagen challenge measured for 5 mins by aggregometric analysis relative to vehicle-treated control
# Details: not given
row,inhibition [%],Structure (SMILES)
1,66,Cc1ccc(-c2noc(C)c2-c2ccccc2)o1

# Target: T1, Prostaglandin G/H synthase 1
# Test: Inhibition of COX-1 (unknown origin) in platelet rich plasma assessed as inhibition of collagen-induced platelet aggregation up to 3 uM incubated for 5 mins prior to collagen challenge measured for 5 mins by aggregometric analysis
# Details: not given
row,inhibition,Structure (SMILES)
1,inactive,Cc1ccc(-c2noc(C)c2-c2ccccc2)o1

# Target: Prostaglandin G/H synthase 2 (Homo sapiens) (UniProt P35354)
# Test: Inhibition of COX-2 in human MDA-MB-231 cells assessed as inhibition of arachidonic acid-induced PGE2 formation at 100 uM incubated for 30 mins prior to arachidonic acid challenge measured after 30 mins by radioimmunoassay relative to vehicle-treated control
# Details: not given
row,inhibition [%],Structure (SMILES)
1,70,Cc1ccc(-c2noc(C)c2-c2ccccc2)o1
